Laboratory results: the NIST ThermoML archive (doi:10.1016/j.jct.2018.11.014)

Test: molar heat capacity at constant pressure
Conditions: 101.33 kPa, Crystal, Vacuum adiabatic calorimetry

O=C(CO)[C@H](O)[C@H](O)[C@H](O)CO [D-psicose]
Conditions	molar heat capacity at constant pressure [J/K/mol]
193.32 K	145.45
194.41 K	146.37
194.63 K	146.4
195.35 K	146.92
196.32 K	147.62
196.58 K	147.65
197.38 K	148.33
198.25 K	149.1
198.55 K	149.16
199.39 K	149.76
200 K	150.21
200.22 K	150.43
200.55 K	150.56
201.43 K	151.19
202.17 K	151.83
202.58 K	152.06
203.5 K	152.67
204.12 K	153.18
204.65 K	153.53
205.56 K	154.09
206.7 K	154.98
207.61 K	155.56
208.78 K	156.4
209.65 K	157.04
210 K	157.3
210.89 K	157.92
211.72 K	158.49
212.99 K	159.44
213.81 K	160.01
215.07 K	160.9
215.9 K	161.43
217.15 K	162.36
217.98 K	163.06
219.31 K	163.88
220 K	164.4
220.04 K	164.46
221.53 K	165.48
222.21 K	165.84
223.74 K	167.09
224.47 K	167.6
225.94 K	168.64
226.71 K	169.21
228.14 K	170.2
228.95 K	170.75
230 K	171.54
230.36 K	171.83
231.25 K	172.46
232.61 K	173.46
233.65 K	174.15
234.87 K	174.98
236.07 K	175.9
237.14 K	176.72
238.49 K	177.45
239.4 K	178.38
240 K	178.72
240.95 K	179.37
241.69 K	179.82
243.45 K	181.14
244.01 K	181.62
245.99 K	183.07
246.32 K	183.25
248.54 K	184.87
248.61 K	184.95
250 K	185.94
250.9 K	186.65
251.09 K	186.81
253.21 K	188.45
253.63 K	188.66
255.55 K	189.85
256.15 K	190.4
257.88 K	191.75
258.7 K	192.25
260 K	193.15
260.93 K	193.78
263.32 K	195.6
265.71 K	197.22
268.09 K	199.02
270 K	200.36
270.5 K	200.87
272.99 K	202.45
275.52 K	204.17
278.04 K	206.05
280 K	207.59
280.55 K	207.87
281.85 K	208.9
282.34 K	209.34
283.14 K	209.63
284.44 K	210.76
284.81 K	211
285.82 K	211.74
287.07 K	212.81
287.31 K	212.9
288.48 K	213.7
289.68 K	214.75
289.9 K	214.79
290 K	214.85
291.13 K	215.63
292.28 K	216.49
292.52 K	216.73
293.77 K	217.6
294.87 K	218.44
295.13 K	218.64
296.44 K	219.94
297.49 K	220.33
298.15 K	220.79
299.14 K	221.01
300 K	222.14
300.13 K	222.34
301.82 K	223.5
302.77 K	224.25
304.49 K	225.49
305.39 K	226.09
307.15 K	227.47
308 K	228.01
309.84 K	229.4
310 K	229.48
310.63 K	229.95
312.56 K	231.38
313.29 K	231.87
315.26 K	233.4
315.94 K	233.92
318.01 K	235.4
318.58 K	235.78
320 K	236.88
320.81 K	237.33
321.2 K	237.81
323.64 K	239.66
323.85 K	239.71
326.49 K	241.59
326.53 K	241.79
329.19 K	243.75
329.33 K	243.86
330 K	244.34
